The source of these data is PMC8494917 (2021).

Experiment [1] has as its system Bs-preQ1-RS full length (RNA, riboswitch) GCGGGAGAGGUUCUAGCUACACCCUCUAUAAAAAACUAGGACGAGCUGUAUCCUUGGAUACGGCCUUUU
Put plainly: competition of photocrosslinking, TAMRA click labelling, PAGE. To be noted: 100 mM K+, 2 mM Mg2+; probe 11 (250 µM) displaced by 500-1000 µM PreQ1, in MCF-7 total RNA.

Experiment [2] deals with Cy5-Tt-preQ1-RS (RNA, riboswitch) CUGGGUCGCAGUAACCCCAGUUAACAAAACAAG
Put plainly: microscale thermophoresis. To be noted: 100 mM K+, 2 mM Mg2+, 50 mM Tris-HCl pH 7.5, 5% DMSO, room temperature, 100 nM RNA. For orientation: MST reads how a fluorescent partner responds to local heating, with and without ligand.

Experiment [3] relates to Ss-preQ1-RS (RNA, riboswitch) AGAGGUUCCUAGCUGAUACCCUCUAUAAAAAACUA
Put plainly: competition of photocrosslinking, PAGE. To be noted: 100 mM K+, 2 mM Mg2+; 50 mM Tris pH 7.5; probe 11 (250 µM) displaced by 125-1250 µM PreQ1.

The test system of experiment [4] is Cy5-Bs-preQ1-RS (RNA, riboswitch) AGAGGUUCUAGCUACACCCUCUAUAAAAAACUAA
Put plainly: microscale thermophoresis. To be noted: 100 mM K+, 2 mM Mg2+, 50 mM Tris-HCl pH 7.5, 5% DMSO, room temperature, 100 nM RNA.

Experiment [5] deals with Ss-preQ1-RS (RNA, riboswitch) AGAGGUUCCUAGCUGAUACCCUCUAUAAAAAACUA
The experiment can be described thus: UV photocrosslinking, MALDI-TOF. To be noted: 100 mM K+, 2 mM Mg2+; 10 µM RNA, 500 µM compound; covalent.

In experiment [6] the test system is SAM-II-WT-RS (RNA, riboswitch) UCGCGCUGAUUUAACCGUAUUGCAAGCGCGUGAUAAAUGUAGCUAAAAAGGG
Put plainly: UV photocrosslinking, denaturing PAGE. Particulars: 100 mM K+, 2 mM Mg2+; 50 mM Tris pH 7.5; 50:1 compound:RNA; covalent crosslink not detected.

Experiment [7] concerns Ss-preQ1-RS (RNA, riboswitch) AGAGGUUCCUAGCUGAUACCCUCUAUAAAAAACUA
Put plainly: UV photocrosslinking, denaturing PAGE. To be noted: 100 mM K+, 2 mM Mg2+; 50 mM Tris pH 7.5, room temperature; 5 µM RNA, 25-250 µM compound; covalent.

The subject of experiment [8] is Tt-preQ1-RS(G11A) (RNA, riboswitch) CUGGGUCGCAAUAACCCCAGUUAACAAAACAAG
Put plainly: UV photocrosslinking, denaturing PAGE. Particulars: 100 mM K+, 2 mM Mg2+; 50 mM Tris pH 7.5; 10 µM RNA, 500 µM compound; covalent; similar to wild type.

Experiment [9] concerns Tt-preQ1-RS(G5A) (RNA, riboswitch) CUGGAUCGCAGUAACCCCAGUUAACAAAACAAG
Put plainly: UV photocrosslinking, denaturing PAGE. Particulars: 100 mM K+, 2 mM Mg2+; 50 mM Tris pH 7.5; 10 µM RNA, 500 µM compound; covalent; similar to wild type.

For experiment [10], the system named is Bs-preQ1-RS (RNA, riboswitch) AGAGGUUCUAGCUACACCCUCUAUAAAAAACUAA
The experiment can be described thus: UV photocrosslinking, denaturing PAGE. Particulars: 100 mM K+, 2 mM Mg2+, 50 mM Tris pH 7.5, 5% DMSO, room temperature, 5 µM RNA, 250 µM compound, covalent.

For experiment [11], the system named is Tt-preQ1-RS (RNA, riboswitch) CUGGGUCGCAGUAACCCCAGUUAACAAAACAAG
Put plainly: X-ray crystallography, 2.80 Å. Particulars: without photocrosslinking.

Experiment [12] deals with Tt-preQ1-RS (ab 13_14) (RNA, riboswitch, abasic at 13 and 14) CUGGGUCGCAGUNNCCCCAGUUAACAAAACAAG
Put plainly: X-ray crystallography, 1.57 Å. Particulars: without photocrosslinking.

Experiment [13] deals with Tt-preQ1-RS(G4A) (RNA, riboswitch) CUGAGUCGCAGUAACCCCAGUUAACAAAACAAG
The experiment can be described thus: UV photocrosslinking, denaturing PAGE. Particulars: 100 mM K+, 2 mM Mg2+; 50 mM Tris pH 7.5; 10 µM RNA, 500 µM compound; covalent; about 40% less than wild type.

In experiment [14] the test system is miR21-hp (RNA, miRNA) GGGUUGACUGUUGAAUCUCAUGGCAACCC
Put plainly: UV photocrosslinking, denaturing PAGE. To be noted: 100 mM K+, 2 mM Mg2+; 50 mM Tris pH 7.5; 50:1 compound:RNA; covalent crosslink not detected.

Experiment [15] has as its system Bs-preQ1-RS full length (RNA, riboswitch) GCGGGAGAGGUUCUAGCUACACCCUCUAUAAAAAACUAGGACGAGCUGUAUCCUUGGAUACGGCCUUUU
Put plainly: UV photocrosslinking, TAMRA click labelling, PAGE. To be noted: 100 mM K+, 2 mM Mg2+; 50 mM Tris pH 7.5, 5% DMSO; 1 µM RNA, 250 µM compound; covalent.

The structures appear in SMILES notation.

Regarding `NCc1c[nH]c2nc(N)[nH]c(=O)c12`, the binding entry in [1] and in experiment [3] was “yes” throughout. Further, the apparent dissociation constant in experiment [2] was 0.193 ± 0.04523 µM; in experiment [4], 0.243 ± 0.01639 µM.

In the case of `Nc1nc2[nH]cc(CNCCC3(CCc4cn(CCOCCOCCOCCNC(=O)CCCC[C@@H]5SC[C@@H]6NC(=O)N[C@@H]65)nn4)N=N3)c2c(=O)[nH]1`, the binding entry in experiment [5] was “yes”.

As to `C#CCCC1(CCNCc2c[nH]c3nc(N)[nH]c(=O)c23)N=N1`, the binding entry in experiment [6] is given as “no”; in experiment [7], “yes”; in experiment [8], “yes”; in experiment [9], “yes”; in experiment [11], “yes”; in experiment [12] it was “yes”. For the same molecule, the binding entry is given as “yes” in experiment [13], “no” in [14] and “yes” in experiment [15]. Moreover, the values for the apparent dissociation constant in experiment [2] (about 50 x K of PreQ1) and in experiment [4] (about 50 x K of PreQ1) were 11.03 ± 2.98 µM and 8.25 ± 2.56 µM, respectively. Moreover, the “% Crosslink efficiency” value in [10] was determined as 31.3 ± 2.9%.

Take `Nc1nc2[nH]cc(CNCCOCCOCCNCc3ccc(C4(C(F)(F)F)N=N4)cc3)c2c(=O)[nH]1`: the “% Crosslink efficiency” value in [10] came to 22.0 ± 2.2%.

Take `C#CCCC1(CCC(=O)NCc2c[nH]c3nc(N)[nH]c(=O)c23)N=N1`: the “% Crosslink efficiency” value in [10] came to 39.9 ± 5.3%.

As to `Nc1nc2[nH]cc(CNCc3ccc(C4(C(F)(F)F)N=N4)cc3)c2c(=O)[nH]1`, the binding entry in [10] (trace only) is given as “weak”.

Regarding `CC1(CCC(=O)NCc2c[nH]c3nc(N)[nH]c(=O)c23)N=N1`, the “% Crosslink efficiency” value in experiment [10] was determined as 49.2 ± 3.2%.

As for `Nc1nc2[nH]cc(CNCCOCCOCCOCCNCc3ccc(C4(C(F)(F)F)N=N4)cc3)c2c(=O)[nH]1`, the “% Crosslink efficiency” value in [10] is recorded as 19.4 ± 4.4%.
